The assay can be described thus: The compound was tested for anesthetic potency in tadpoles. The format is functional, frog.

The structures appear in SMILES notation.

Regarding `CCCCCC1(CCO)N=N1`, the EC50 worked out at 160 µM.

A word on the EC50: it is the concentration needed to bring the measured effect to its halfway point.

The values are drawn from ChEMBL document CHEMBL1132357, “Synthesis and properties of 3-(2-hydroxyethyl)-3-n-pentyldiazirine, a photoactivable general anesthetic” (J Med Chem, 1999).
